Our source for the TGI and GI50 values is PubChem BioAssay (NCI).

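1) Cells in 96-well plates. 2) Compound, 48 h, 5 concentrations. 3) Linear interpolation between surrounding doses. 4) Unreached endpoint = highest concentration. Here, GI50 denotes the concentration required for 50% inhibition of growth. At the TGI there is no net growth.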

Among the test systems are MOLT-4 leukemia; RXF 393 renal; SNB-19 CNS; SNB-75 CNS; EKVX NSCLC; ACHN renal; OVCAR-5 ovarian; COLO 205 colon; HT29 colon.
Common to all, as to assay: NCI-60 cell line screen, 48 h

As for `C/C(O)=C(\N=O)C(=O)Nc1ccc(Cl)cc1Cl`, the TGI in the test on MOLT-4 leukemia, in the test with RXF 393 renal, in the test on SNB-19 CNS, in the test on SNB-75 CNS, in the test with EKVX NSCLC and in the test with ACHN renal was above 100 µM throughout. Moreover, the TGI in the test with OVCAR-5 ovarian, in the test on COLO 205 colon and with HT29 colon was above 100 µM throughout.

With `O=C(O)c1nn(-c2ccccc2-c2n[nH]c(=O)[nH]c2=O)c(=O)[nH]c1=O`, the TGI in the test with MOLT-4 leukemia, with RXF 393 renal, in the test with SNB-19 CNS, in the test on SNB-75 CNS, with EKVX NSCLC and in the test on ACHN renal was above 100 µM each time. The TGI with OVCAR-5 ovarian, in the test with COLO 205 colon and in the test on HT29 colon was above 100 µM each time.

With `O=C1c2cccc([N+](=O)[O-])c2C(=O)N1c1ncn[nH]1`, the TGI in the test with MOLT-4 leukemia is above 100 µM; in the test on RXF 393 renal, above 100 µM; in the test on SNB-19 CNS, above 100 µM; in the test on SNB-75 CNS it was 64.6 µM; in the test on EKVX NSCLC it was above 100 µM; with ACHN renal, above 100 µM. In addition, the TGI with OVCAR-5 ovarian, in the test on COLO 205 colon and in the test on HT29 colon was above 100 µM in each case.

In the case of `COc1ccc2c(c1)C(=O)Cc1ccccc1CC2`, the TGI in the test with MOLT-4 leukemia, in the test on RXF 393 renal, in the test with SNB-19 CNS, with SNB-75 CNS, in the test on EKVX NSCLC and with ACHN renal was above 100 µM throughout. Moreover, the TGI in the test on OVCAR-5 ovarian, with COLO 205 colon and in the test on HT29 colon was above 100 µM throughout.

Regarding `CCN(CC)C(c1ccc(N(C)C)cc1)C(c1ccc(N(C)C)cc1)N(CC)CC` (centres undefined), the TGI with MOLT-4 leukemia, with RXF 393 renal, in the test with SNB-19 CNS, with SNB-75 CNS, in the test with EKVX NSCLC and in the test with ACHN renal was above 73 µM throughout. The TGI in the test with OVCAR-5 ovarian, in the test on COLO 205 colon and with HT29 colon was above 73 µM throughout.

For `O=C(O)CCNC1CCCCC1`, the GI50 in the test with MOLT-4 leukemia, in the test with RXF 393 renal, with SNB-19 CNS, in the test on SNB-75 CNS, in the test on EKVX NSCLC and in the test with ACHN renal was above 100 µM in each case. The GI50 with OVCAR-5 ovarian, in the test on COLO 205 colon and in the test on HT29 colon was above 100 µM each time. For the same molecule, the TGI with MOLT-4 leukemia, in the test with RXF 393 renal, in the test with SNB-19 CNS, in the test on SNB-75 CNS, in the test with EKVX NSCLC and in the test on ACHN renal was above 100 µM throughout. Further, the TGI in the test on OVCAR-5 ovarian, in the test with COLO 205 colon and in the test with HT29 colon was above 100 µM throughout.

Turning to `CC[C@@]1(c2ccccc2)C2=C(CC(C)(C)CC2=O)Nc2[nH]ncc21`, the GI50 is above 100 µM in the test with MOLT-4 leukemia; above 100 µM with RXF 393 renal; above 100 µM with SNB-19 CNS; 14.9 µM with SNB-75 CNS; above 100 µM with EKVX NSCLC; above 100 µM in the test with ACHN renal. Further, the GI50 in the test with OVCAR-5 ovarian, with COLO 205 colon and in the test on HT29 colon was above 100 µM throughout. The TGI with MOLT-4 leukemia, in the test on RXF 393 renal, in the test on SNB-19 CNS, with SNB-75 CNS, with EKVX NSCLC and with ACHN renal was above 100 µM each time. Moreover, the TGI with OVCAR-5 ovarian, in the test with COLO 205 colon and in the test on HT29 colon was above 100 µM throughout.

Take `CCOC1Oc2ccc(C)cc2C(=O)/C1=C\Nc1ccc(C(N)=O)cc1` (centres undefined): the GI50 in the test on MOLT-4 leukemia is 46.2 µM; in the test with RXF 393 renal it was 22.9 µM; in the test on SNB-19 CNS, 18.4 µM; in the test with SNB-75 CNS it was 44.5 µM; in the test with EKVX NSCLC, 25.8 µM; in the test on ACHN renal it was 14.9 µM. The results for the GI50 with OVCAR-5 ovarian, in the test with COLO 205 colon and in the test on HT29 colon were 22 µM, 8.52 µM and 37.5 µM, respectively. The TGI with MOLT-4 leukemia is above 100 µM; with RXF 393 renal it was 49 µM; with SNB-19 CNS it was above 100 µM; with SNB-75 CNS it was above 100 µM; in the test on EKVX NSCLC, 69 µM; with ACHN renal, 40.6 µM. Further, the TGI with OVCAR-5 ovarian was 47.1 µM; in the test on COLO 205 colon, above 100 µM; in the test on HT29 colon, above 100 µM.

For `O=C(CCc1nnc2sc(-c3ccc(Cl)cc3Cl)nn12)c1nc2ccccc2[nH]1`, the GI50 is 0.29 µM with MOLT-4 leukemia; 0.394 µM in the test with RXF 393 renal; 1.41 µM with SNB-19 CNS; 1.48 µM in the test on SNB-75 CNS; 1.93 µM in the test with EKVX NSCLC; 0.337 µM with ACHN renal. Moreover, the figures for the GI50 in the test on OVCAR-5 ovarian, with COLO 205 colon and with HT29 colon were 1.96 µM, 1.09 µM and 0.374 µM, respectively. For the same molecule, the TGI stood at 1.04 µM with RXF 393 renal; 5.8 µM in the test with SNB-19 CNS; 3.53 µM in the test with SNB-75 CNS; 5.92 µM in the test with EKVX NSCLC; 1.29 µM in the test with ACHN renal; 4.23 µM in the test on OVCAR-5 ovarian. The figures for the TGI in the test on COLO 205 colon and in the test with HT29 colon were 2.65 µM and 2.01 µM, respectively.

With `O=C1CCC(N2C(=O)c3ccccc3C2=O)C(=O)N1CO` (centres undefined), the GI50 was 36.2 µM in the test with MOLT-4 leukemia; 43 µM with RXF 393 renal; above 100 µM in the test with SNB-19 CNS; above 100 µM in the test with SNB-75 CNS; above 100 µM with EKVX NSCLC; 95.2 µM in the test with ACHN renal. Besides, the figures for the GI50 with OVCAR-5 ovarian, in the test with COLO 205 colon and in the test with HT29 colon were above 100 µM, above 100 µM and 42.1 µM, respectively. The TGI with MOLT-4 leukemia, with RXF 393 renal, in the test on SNB-19 CNS, with SNB-75 CNS, in the test with EKVX NSCLC and in the test on ACHN renal was above 100 µM throughout. Further, the TGI with OVCAR-5 ovarian, in the test on COLO 205 colon and with HT29 colon was above 100 µM throughout.
